These results are taken from US20230235084A1, “COMPOSITIONS AND METHODS FOR TARGETED PROTEIN STABILIZATION BY REDIRECTING ENDOGENOUS DEUBIQUITINASES” (THE TRUSTEES OF COLUMBIA UNIVERSITY IN THE CITY OF NEW YORK, priority 2020, published 2023).

The test system of one assay is KCNQ1. As to the kind of experiment: Whole-cell patch clamp of KCNQ1 currents in CHO cells. Format: cell-based, human.
Assay [1] concerns CFTR. As to the kind of experiment: Whole-cell patch clamp of CFTR currents in HEK293 cells. The class given is cell-based, human. An excerpt: A critical next step was to determine whether enDUB-U21-rescued mutant CFTR channels are functional. We focused on N1303K and 4326delTC to represent Class II and Class VI mutations, respectively. HEK293 cells expressing WT CFTR display robust forskolin-activated chloride currents that are blocked by CFTR inhibitor (FIGS. 3C and 3D), and not observed in untransfected cells (FIG. 3E). By contrast, cells expressing either N1303K or 4326delTC alone yielded no forskolin-induced currents (FIGS. 3F and 3G) consistent with their limited surface trafficking and status as disease-causing mutants.
For CFTR channel measurements, whole-cell recordings were carried out in HEK293 and FRT cells at room temperature. Internal solution contained (mM): 113 L-aspartic acid, 113 CsOH, 27 CsCl, 1 NaCl, 1 MgCl2, 1 EGTA, 10 TES, 3 MgATP (pH 7.2). External contained (in mM): 145 NaCl, 4 CsCl, 1 CaCl2, 1 MgCl2, 10 glucose, and 10 TES (pH 7.4). I-V curves were generated from a family of step depolarizations (-80 to +80 mV in 20 mV steps from a holding potential of -40 mV). CFTR currents were activated by perfusion with 10 µM forskolin. In experiments utilizing lumacaftor (3 µM), the drug was added for 24 hrs posttransfection and incubated at 37° C. Ivacaftor was used acutely at 5 µM concentration. Currents were sampled at 20 kHz and filtered at 7 kHz. Traces were acquired at a repetition interval of 10 s.

A further assay relates to BBS-CFTR-YFP. The experiment in a line: Flow cytometry assay of CFTR surface density in HEK293 cells. The class given is cell-based, human. The text has this: BBS-tagged YFP-CFTR was engineered to enable simultaneous assessment of total channel expression and surface density using flow cytometry, and probed the impact of six distinct mutations previously categorized as Class II (F508del, R560T, N1303K) or Class VI (Q1412X, 4279insA, 4326delTC) mutations, respectively (FIG. 3A). All six mutations markedly impaired channel surface density compared to WT CFTR (FIG. 3B, black bars). […] We utilized a second enDUB (enDUB-U21) that comprises the catalytic component of ubiquitin-specific protease USP21 (FIG. 3A), which removes all ubiquitin linkage types (Faesen et al. 2011).
Cell surface and total ion channel pools were assayed by flow cytometry in live, transfected HEK293 cells as previously described (Kanner et al. 2017; Kanner et al. 2018). Briefly, 48 hrs post-transfection, cells cultured in 12-well plates gently washed with ice cold PBS containing Ca^2+ and Mg^2+ (in mM: 0.9 CaCl2, 0.49 MgCl2, pH 7.4), and then incubated for 30 min in blocking medium (DMEM with 3% BSA) at 4° C. HEK293 cells were then incubated with 1 µM Alexa Fluor 647 conjugated α-bungarotoxin (BTX647; Life Technologies) in DMEM/3% BSA on a rocker at 4° C. for 1 hr, followed by washing three times with PBS (containing Ca^2+ and Mg^2+ ). […]

The target in a further assay is T1, full-length CFTR (Homo sapiens, UniProt P13569).
T1 construct: expressed in transfected cells; host or cells: HEK293
As to the kind of experiment: Flow cytometric FRET binding assay in HEK293 cells. The conditions noted are these: Cerulean-nanobody donor, Venus-CFTR acceptor. An excerpt: (§1) While GFP-targeted enDUBs provided critical proof-of-concept efficacy for the targeted deubiquitination approach in rescuing different trafficking-deficient recombinant mutant channels, a key next step was to develop nanobodies towards CFTR itself to enable targeting of endogenous channels. Accordingly, we used purified CFTR NBD1 domain (FIG. 4A) as bait to identify binders using a yeast nanobody library surface display approach (McMahon et al. 2018) (FIG. 4B). After several rounds of magnetic-activated cell sorting (MACS) and fluorescence-activated cell sorting (FACS) selection we isolated 14 unique nanobody binders with a range of affinities for NBD1 as reported by an on-yeast binding assay (FIG. 12A; Table 1). […] Binding of nb.E3h to full-length CFTR in cells was confirmed by a flow cytometric fluorescence resonance energy transfer (flow-FRET) assay (FIG. 4C).
FRET binding assays were performed via flow cytometry in live, transfected HEK293 cells as previously described (Lee et al. 2016). […] Cerulean (Cer), Venus (Ven), and FRET signals were analyzed using the following laser / filter set configurations: BV421 (Ex: 405 nm, Em: 450/50), FITC (Ex: 488 nm, Em: 525/50), and BV520 (Ex: 405 nm, Em: 525/50), respectively. […]

The test system of assay [2] is CFTR. The experiment in a line: YFP halide quenching assay in HEK293 cells. Format: cell-based, human. The following applies: HEK293, pilot screen of nanobodies.
From the text: as §1
Target sequence in this assay (P13569 387-646 limits assumed): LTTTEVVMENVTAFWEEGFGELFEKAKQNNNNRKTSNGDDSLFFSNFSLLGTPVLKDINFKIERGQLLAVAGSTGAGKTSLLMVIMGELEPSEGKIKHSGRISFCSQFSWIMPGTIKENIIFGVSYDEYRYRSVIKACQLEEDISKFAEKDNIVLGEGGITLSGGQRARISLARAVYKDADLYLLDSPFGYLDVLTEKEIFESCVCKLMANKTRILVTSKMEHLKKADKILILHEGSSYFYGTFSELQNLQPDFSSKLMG
A YFP halide quenching plate-reader assay was adapted from previous work (Galietta et al. 2001). […] Baseline YFP readings (Ex: 510 nm, Em: 538 nm) were taken using a SpectraMax M5 plate-reader (Molecular Devices). An equal amount of 2× activation solution, containing iodide, was added to obtain a final concentration (70 mM Nal, 10 µM forskolin, 5 µM VX770), and a time series recording YFP fluorescence was taken every 2 s. […]

T1 sequence (P13569 whole entry): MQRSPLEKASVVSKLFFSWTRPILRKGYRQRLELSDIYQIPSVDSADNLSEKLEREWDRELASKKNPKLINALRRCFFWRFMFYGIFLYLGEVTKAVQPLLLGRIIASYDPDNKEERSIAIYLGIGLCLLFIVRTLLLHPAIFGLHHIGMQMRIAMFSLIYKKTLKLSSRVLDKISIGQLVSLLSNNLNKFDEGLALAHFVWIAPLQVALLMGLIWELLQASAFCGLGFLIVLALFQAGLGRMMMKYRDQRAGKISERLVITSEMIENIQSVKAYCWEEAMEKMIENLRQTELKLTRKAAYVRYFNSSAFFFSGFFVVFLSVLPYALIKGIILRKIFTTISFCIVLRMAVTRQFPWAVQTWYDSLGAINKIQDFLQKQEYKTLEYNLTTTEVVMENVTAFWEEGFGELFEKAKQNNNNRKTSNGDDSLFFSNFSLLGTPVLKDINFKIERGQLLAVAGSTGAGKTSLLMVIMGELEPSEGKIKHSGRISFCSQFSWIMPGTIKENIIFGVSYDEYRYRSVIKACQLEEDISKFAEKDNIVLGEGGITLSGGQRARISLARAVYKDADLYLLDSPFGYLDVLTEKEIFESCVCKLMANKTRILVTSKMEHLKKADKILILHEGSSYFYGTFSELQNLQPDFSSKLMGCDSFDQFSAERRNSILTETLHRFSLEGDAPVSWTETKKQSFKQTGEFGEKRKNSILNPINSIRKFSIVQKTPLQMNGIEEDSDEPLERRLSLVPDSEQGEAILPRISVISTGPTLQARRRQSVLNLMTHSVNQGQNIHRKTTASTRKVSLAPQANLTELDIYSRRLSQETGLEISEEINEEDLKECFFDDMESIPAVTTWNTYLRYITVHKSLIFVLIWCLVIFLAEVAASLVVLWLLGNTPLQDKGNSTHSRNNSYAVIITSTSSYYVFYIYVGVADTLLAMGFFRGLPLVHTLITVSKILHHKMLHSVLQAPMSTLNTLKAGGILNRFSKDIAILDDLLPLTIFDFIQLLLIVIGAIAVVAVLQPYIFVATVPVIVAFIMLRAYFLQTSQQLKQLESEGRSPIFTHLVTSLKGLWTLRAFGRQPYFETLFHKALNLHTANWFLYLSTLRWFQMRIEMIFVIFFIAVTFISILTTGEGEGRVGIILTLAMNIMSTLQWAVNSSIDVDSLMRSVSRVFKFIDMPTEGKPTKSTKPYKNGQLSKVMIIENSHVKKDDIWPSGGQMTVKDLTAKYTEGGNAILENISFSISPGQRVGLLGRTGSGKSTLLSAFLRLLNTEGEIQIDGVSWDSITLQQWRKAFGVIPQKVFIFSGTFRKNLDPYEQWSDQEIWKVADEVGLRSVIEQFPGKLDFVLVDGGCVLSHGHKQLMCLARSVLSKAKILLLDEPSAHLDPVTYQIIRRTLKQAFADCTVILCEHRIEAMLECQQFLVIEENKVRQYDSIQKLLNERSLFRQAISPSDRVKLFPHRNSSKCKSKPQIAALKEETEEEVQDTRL
Protocol for KCNQ1: Whole-cell patch clamp electrophysiology was used to determine functionality of enDUB-O1-rescued KCNQ1 channels.
Chinese hamster ovary (CHO) cells were obtained from ATCC and cultured at 37° C. in Kaighn’s Modified Ham’s F-12K (ATCC) supplemented with 8% FBS and 100 mg/mL of penicillin-streptomycin. CHO cells were transiently transfected with desired constructs in 35 mm tissue culture dishes—KCNQ1 (0.5 µg) and nano-P2A-CFP (0.5 µg) or enDUBO1-P2A-CFP (0.5 µg) using X-tremeGENE HP (1:2 DNA/reagent ratio) according to the manufacturers’ instructions (Roche).
For potassium channel measurements, whole-cell membrane currents were recorded at room temperature in CHO cells using an EPC-10 patch-clamp amplifier (HEKA Electronics) controlled by the PatchMaster software (HEKA). A coverslip with adherent CHO cells was placed on the glass bottom of a recording chamber (0.7-1 mL in volume) mounted on the stage of an inverted Nikon Eclipse Ti-U microscope. Micropipettes were fashioned from 1.5 mm thin-walled glass and fire-polished. […] Pipette resistance was typically 1.5 MΩ when filled with internal solution. I-V curves were generated from a family of step depolarizations (-40 to +100 mV in 10 mV steps from a holding potential of -80 mV). Currents were sampled at 20 kHz and filtered at 5 kHz. Traces were acquired at a repetition interval of 10 s.

For `COc1ccc(-c2csc(NC(=O)[C@H]3CCCCN3S(=O)(=O)c3ccc(C)cc3)n2)cc1` [ML277, (R)-N-(4-(4-methoxyphenyl)thiazol-2-yl)-1-tosylpiperidine-2-carboxamide], the “enDUB-O1-rescued R591H current amplitude” value in the assay on KCNQ1 (R591H + enDUB-O1, ML277 1 µM) is reported as “markedly increased enDUB-O1-rescued R591H current amplitude to beyond WT KCNQ1 levels”. Moreover, in the assay with KCNQ1 (R591H + nano, 1 µM), the “R591H KCNQ1 currents” value is “modestly increased R591H currents”.
Turning to `CC(C)(C)c1cc(C(C)(C)C)c(NC(=O)c2c[nH]c3ccccc3c2=O)cc1O` [ivacaftor], in the assay with CFTR [1] (enDUB-U21 co-expression + lumacaftor, ivacaftor 5 µM), the “Forskolin-stimulated 4326delTC or N1303K currents after ivacaftor” value was “further enhanced”. For the same molecule, the “Forskolin-induced 4326delTC and N1303K currents after ivacaftor” value in the assay with CFTR [1] (nano-expressing HEK293 cells, lumacaftor pre-incubation, ivacaftor 5 µM) is “further elevated”.
For `Cc1ccc(NC(=O)C2(c3ccc4c(c3)OC(F)(F)O4)CC2)nc1-c1cccc(C(=O)O)c1` [lumacaftor], the “Forskolin-induced 4326delTC and N1303K currents” value with CFTR [1] (nano-expressing HEK293 cells, lumacaftor pre-incubation) is “relatively small”. Moreover, in the assay on BBS-CFTR-YFP (lumacaftor 24 hrs pre-incubation or enDUB co-expression), the “F508del and R560T CFTR surface expression” value was “did not increase F508del and R560T surface expression”. Moreover, in the assay with BBS-CFTR-YFP (lumacaftor 24 hrs pre-incubation or enDUB co-expression (enDUB compared to lumacaftor)), the “Surface trafficking of the other four CFTR mutations (N1303K, Q1412X, 4279insA, 4326delTC)” value is reported as “improved trafficking of the remaining 4 mutations”.

B1: nb.E3h: CFTR (NBD1) target nanobody clone, SEQ ID No: 25 (protein)
VHH: QVQLQESGGGLVQAGGSLRLSCAASGTISGSGSMGWYRQAPGKEREFVAAINVGSNTYYADSVKGRFTISRDNAKNTVYLQMNSLKPEDTAVYYCAVRFGYYYRHTYWGQGTQVTVSS
modifications: nanobody
For B1, the “Performance in patch clamp assay when converted to an enDUB” value in the assay with CFTR [1] (HEK293) is reported as “superior performance”. Further, the “Binding to full-length CFTR in cells (flow-FRET)” value with full-length CFTR was “confirmed”. Besides, the “Performance in halide sensor assay when converted to an enDUB” value in the assay with CFTR [2] is “superior performance”.
